According to publication PMC11096237, “Utilizing a structure-based virtual screening approach to discover potential LSD1 inhibitors” (Journal of Cancer Research and Clinical Oncology, 2024):

Biological target: T1, LSD1 (Homo sapiens, UniProt O60341)
T1 construct: gene KDM1A
Assay: Amplex Red/HRP-coupled fluorescence demethylase assay with purified recombinant LSD1 and H3K4me2
Assay type: biochemical
Description: Amplex Red/HRP-coupled fluorescence demethylase assay with purified recombinant LSD1 and H3K4me2 on LSD1 | […]

IC50: 99 nM
SMILES: O=C(CNC(=O)Cc1ccccc1)NCC(=O)OCC(=O)c1ccc(OCc2ccccc2)cc1 [ZINC10039815]
